Here are results for nine molecules from PMC4541799 (Journal of ethnopharmacology, 2015).

As a reminder, the IC50 is the midpoint of a concentration-inhibition curve. Low values mean higher potency, high ones lower potency.

Data set [1] has as its system SCC2095 (oral squamous cell carcinoma cell line). In words: Anti-proliferation MTT assay in SCC2095 cell line. The class given is cell-based, human. Background: Formazan colour is commonly taken as a measure of viable cells.
In data set [2] the test system is SCC2095 cells. The data set can be described thus: Cellular uptake / intracellular accumulation in SCC2095 cells. The class given is in vitro ADME, human. The conditions noted are these: SCC2095 cells incubated with GS409, at different incubation time (2 or 4 hours).
In data set [3] the test system is Caco-2 cell monolayer. The data set can be described thus: Transport study in Caco-2 cell culture model. The class given is in vitro ADME, human. The conditions noted are these: translated from Caco-2 permeability; ref Artursson & Karlsson, 1991. On the technique in general: Caco-2 cells form a polarised layer with tight junctions and transporters.
Setting [4] is: SCC2095 cell line, MTT, 48 hours incubation.

≈ marks a conversion by molar mass, not a printed value.

Molecule `O=c1[nH]cc(F)c(=O)[nH]1` [5-Fu (positive control), reference compound] yielded a half-maximal inhibitory concentration (IC50) in data set [1] (setting [4]) of 28.61 µg/mL (≈ 220 µM).
For the molecule `CC1(C)O[C@H]2CC(=O)OC[C@@]23C1=C(O)C(=O)[C@]1(C)[C@@H]3CC[C@@]2(C)[C@H](c3ccoc3)OC(=O)[C@H]3O[C@]321` [Evodol, evodol], the IC50 in data set [1] (setting [4]) was above 100 µg/mL.
Take `CC1=C2C(=O)O[C@@H](c3ccoc3)[C@]2(C)CCC1` [Fraxinellone, fraxinellone]: the concentration for half-maximal inhibition (IC50) in data set [1] (Homo sapiens, 48 h) is 28.6 µg/mL (≈ 123 µM). In data set [2], the “intracellular accumulation among the 9 components” value is recorded as “relatively high”. Further, the “absorption in the human intestine following oral administration” value in data set [3] is given as “more than 70%”.
As to `CC1(C)O[C@H]2CC(=O)OC[C@]23[C@H]2CC[C@@]4(C)[C@H](c5ccoc5)OC(=O)[C@H]5O[C@]54[C@]2(C)C(=O)C[C@@H]13` [Limonin, limonin], in data set [1] (Homo sapiens, 48 h), the IC50 was above 100 µg/mL.
For `Oc1ccc2c(c1)OC[C@H]1c3cc4c(cc3O[C@@H]21)OCO4` [Maackiain, maackiain], the IC50 in data set [1] (Homo sapiens, 48 h) worked out at 86.3 µg/mL (≈ 304 µM). For the same molecule, the “intracellular accumulation among the 9 components” value in data set [2] is recorded as “relatively high”.
As for `O=C1CCC[C@@H]2[C@H]3CCCN4CCC[C@@H](CN12)[C@@H]34` [Matrine, matrine], the IC50 in data set [1] (Homo sapiens, 48 h) is above 100 µg/mL.
On to `CC1(C)OC(=O)C=C[C@]2(C)[C@H]3CC[C@@]4(C)[C@H](c5ccoc5)OC(=O)[C@H]5O[C@]54[C@]3(C)C(=O)C[C@@H]12` [Obacunone, obacunone], for which the IC50 in data set [1] (Homo sapiens, 48 h) was above 100 µg/mL.
In turn, `CC1(C)O[C@H]2CC(=O)OC[C@]23[C@H]2CC[C@@]4(C)[C@H](c5ccoc5)OC(=O)[C@H]5O[C@]54[C@]2(C)[C@@H](O)C(=O)[C@@H]13` [Rutaevine, rutaevine] gave an IC50 in data set [1] (setting [4]) above 100 µg/mL.
As to `OC[C@H]1O[C@@H](Oc2ccc3c(c2)OC[C@H]2c4cc5c(cc4O[C@@H]32)OCO5)[C@H](O)[C@@H](O)[C@@H]1O` [Trifolirhizin, trifolirhizin], the IC50 in data set [1] (Homo sapiens, 48 h) was above 100 µg/mL.
